Data taken from ChEMBL document CHEMBL4041506, “Urea-containing peptide boronic acids as potent proteasome inhibitors” (Eur J Med Chem, 2017).

Tests used:
[1] = Plasma concentration in Sprague-Dawley rat at 3 mg/kg, iv administered as bolus measured at 8 hrs by LC/MS/MS analysis; format: ADME, organism-based
Mus musculus [2] = experiment: Toxicity in human Bel7404 cells xenografted BALB/c mouse assessed as effect on body weight at 2 mg/kg, iv administered once in two days for 24 consecutive days measured on day 10 of compound dosing (reference value: 26.30 +/- 0.78 g); format: organism-based; conditions: in vivo
BEL-7404 tumor cell line [3] = experiment: Antitumor activity against human Bel7404 cells xenografted in BALB/c nude mouse assessed as effect on tumor volume at 0.5 mg/kg, iv administered once in two days for 24 consecutive days measured on day 20 of compound dosing relative to control; format: functional
BEL-7404 tumor cell line [4] = experiment: Antitumor activity against human Bel7404 cells xenografted in BALB/c nude mouse assessed as effect on tumor volume at 1 mg/kg, iv administered once in two days for 24 consecutive days measured on day 3 of compound dosing relative to control; format: functional
BEL-7404 tumor cell line [5] = experiment: Antitumor activity against human Bel7404 cells xenografted in BALB/c nude mouse assessed as effect on tumor volume at 0.5 mg/kg, iv administered once in two days for 24 consecutive days measured on day 3 of compound dosing relative to control; format: functional
BEL-7404 tumor cell line [6] = experiment: Antitumor activity against human Bel7404 cells xenografted in BALB/c nude mouse assessed as effect on tumor volume at 1 mg/kg, iv administered once in two days for 24 consecutive days measured on day 24 of compound dosing relative to control; format: functional
Mus musculus [7] = experiment: Toxicity in human Bel7404 cells xenografted BALB/c mouse assessed as effect on body weight at 1 mg/kg, iv administered once in two days for 24 consecutive days measured on day 10 of compound dosing (reference value: 26.30 +/- 0.78 g); format: organism-based; conditions: in vivo
BEL-7404 tumor cell line [8] = experiment: Antitumor activity against human Bel7404 cells xenografted in BALB/c nude mouse assessed as effect on tumor volume at 1 mg/kg, iv administered once in two days for 24 consecutive days measured on day 17 of compound dosing relative to control; format: functional
BEL-7404 tumor cell line [9] = experiment: Antitumor activity against human Bel7404 cells xenografted in BALB/c nude mouse assessed as effect on tumor volume at 1 mg/kg, iv administered once in two days for 24 consecutive days measured on day 1 of compound dosing relative to control; format: functional

Structure (SMILES): CC(C)C[C@H](NC(=O)[C@H](Cc1ccccc1)NC(=O)N1CCc2ccccc2C1)B(O)O
- concentration at 8 h [1]: 10.2 ng/mL
- Activity (Mus musculus [2]): 25.57 g
- fold change (FC) (BEL-7404 tumor cell line [3]): 4.52
- fold change (FC) (BEL-7404 tumor cell line [4]): 1.36
- fold change (FC) (BEL-7404 tumor cell line [5]): 1.37
- fold change (FC) (BEL-7404 tumor cell line [6]): 4.73
- Activity (Mus musculus [7]): 25.65 g
- fold change (FC) (BEL-7404 tumor cell line [8]): 3.36
- fold change (FC) (BEL-7404 tumor cell line [9]): 1
